In patent US20240115557A1, “INHIBITORS OF RNA-GUIDED NUCLEASES AND USES THEREOF” (The Brigham and Women's Hospital, Inc., priority 2022, published 2024):
Numbered stars: 1 amine (or outer) side, 2 acyl side, 3 side chain; on linkers, the order of the positions; unused ones are H or OH. Bridge positions count the residues as written; N and C are the ends. Square brackets hold non-standard residues; d marks the D form. Peptide text beside a SMILES is read from it. I, II: the chains in the order shown. Actinocin(9to1) = Cc1c2oc3c(C)ccc(C(=O)[*:1])c3nc-2c(C(=O)[*:2])c(N)c1=O; NMeV = CN[C@H](C(=O)O)C(C)C; Sar = CNCC(=O)O

Molecular target: SpCas9 (Streptococcus pyogenes serotype M1, UniProt Q99ZW2)
Sequence (Q99ZW2 whole entry): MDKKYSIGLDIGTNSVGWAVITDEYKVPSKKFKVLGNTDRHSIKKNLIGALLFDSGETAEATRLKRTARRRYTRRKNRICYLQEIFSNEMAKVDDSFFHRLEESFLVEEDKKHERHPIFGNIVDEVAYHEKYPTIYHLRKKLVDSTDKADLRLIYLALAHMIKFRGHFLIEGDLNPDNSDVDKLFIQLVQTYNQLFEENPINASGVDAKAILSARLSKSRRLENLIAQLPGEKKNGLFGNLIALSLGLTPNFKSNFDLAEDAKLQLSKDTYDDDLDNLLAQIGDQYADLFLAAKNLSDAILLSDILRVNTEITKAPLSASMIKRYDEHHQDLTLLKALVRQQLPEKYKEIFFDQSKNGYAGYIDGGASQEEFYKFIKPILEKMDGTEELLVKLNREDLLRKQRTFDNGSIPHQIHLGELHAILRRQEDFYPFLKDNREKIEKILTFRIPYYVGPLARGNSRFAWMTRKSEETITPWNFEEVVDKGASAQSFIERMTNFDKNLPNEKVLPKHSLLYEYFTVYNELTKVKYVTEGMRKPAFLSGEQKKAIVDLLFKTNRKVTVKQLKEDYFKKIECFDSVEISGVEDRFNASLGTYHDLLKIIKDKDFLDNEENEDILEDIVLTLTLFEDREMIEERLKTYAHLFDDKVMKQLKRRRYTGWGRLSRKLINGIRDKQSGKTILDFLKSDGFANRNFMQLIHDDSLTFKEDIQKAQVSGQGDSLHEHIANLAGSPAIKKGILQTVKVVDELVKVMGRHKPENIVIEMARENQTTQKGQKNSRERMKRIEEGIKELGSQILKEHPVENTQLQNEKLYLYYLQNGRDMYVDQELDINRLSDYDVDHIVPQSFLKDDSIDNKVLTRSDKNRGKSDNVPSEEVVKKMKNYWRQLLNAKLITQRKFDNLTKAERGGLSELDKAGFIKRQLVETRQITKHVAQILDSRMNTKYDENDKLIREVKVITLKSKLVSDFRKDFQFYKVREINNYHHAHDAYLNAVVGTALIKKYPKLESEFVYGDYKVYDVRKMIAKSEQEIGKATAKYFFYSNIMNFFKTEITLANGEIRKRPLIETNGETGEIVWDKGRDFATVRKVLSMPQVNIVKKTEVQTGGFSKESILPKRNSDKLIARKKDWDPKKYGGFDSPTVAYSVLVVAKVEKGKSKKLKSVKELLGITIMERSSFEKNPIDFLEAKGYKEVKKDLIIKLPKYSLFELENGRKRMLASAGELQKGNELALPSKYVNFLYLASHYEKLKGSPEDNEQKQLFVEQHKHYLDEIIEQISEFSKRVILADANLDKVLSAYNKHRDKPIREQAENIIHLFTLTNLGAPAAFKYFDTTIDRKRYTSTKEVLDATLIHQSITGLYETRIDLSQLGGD
Assay: eGFP disruption assay, SpCas9, U2OS.eGFP.PEST cells
Assay type: cell-based
Conditions: for Normalized Z rep1 / Z score Rep1: replicate 1; for SpCas9 eGFP disruption Rep1: replicate 1, raw readout; for Normalized Z rep2 / Z socre Rep2: replicate 2; for SpCas9 eGFP disruption Rep2: replicate 2, raw readout
Text: In some embodiments, the secondary assay may be an EGFP disruption assay. In such assay, a quantitative human cell-based reporter assay that enables rapid quantitation of targeted nuclease activities is used to characterize off-target cleavage of Cas9-based RNA guided endonucleases. In this assay, the activities of nucleases targeted to a single integrated EGFP reporter gene can be quantified by assessing loss of fluorescence signal in human U2OS.EGFP cells caused by inactivating frameshift insertion/deletion (indel) mutations introduced by error prone non-homologous end-joining (NHEJ) repair of nuclease-induced double-stranded breaks (DSBs).
In one protocol, U2OS.EGFP cells harboring a single integrated copy of an EGFP-PEST fusion gene are cultured (see e.g., Reyon et al., Nat Biotech 30, 460-465 (2012), which is herein incorporated by reference in its entirety). For transfections, 200,000 cells are Nucleofected with gRNA expression plasmid and pJDS246 together with 30 ng of a Td-tomato-encoding plasmid using the SE Cell Line 4D-Nucleofector™ X Kit (Lonza) according to the manufacturer's protocol. Cells are analyzed 2 days post-transfection using a BD LSRII flow cytometer. Transfections for optimizing gRNA/Cas9 plasmid concentration are performed in triplicate and all other transfections are performed in duplicate. PCR amplification is used for sequence verification of endogenous human genomic sites. PCR reactions are performed using Phusion Hot Start II high-fidelity DNA polymerase (NEB). Loci are amplified using touchdown PCR (98° C., 10 s; 72-62° C., −1° C./cycle, 15s; 72° C., 30 s] 10 cycles, [98° C., 10s; 62° C., 15s; 72° C., 30 s] 25 cycles). Alternatively, PCR for other targets is performed with 35 cycles at a constant annealing temperature of 68° C. or 72° C., and 3% DMSO or IM betaine, if necessary. PCR products are analyzed on a QIAXCEL capillary electrophoresis system to verify both size and purity. Validated products are treated with ExoSap-IT (Affymetrix) and sequenced by the Sanger method (MGH DNA Sequencing Core) to verify each target site.
Primary and secondary screening. The primary screen assayed a selection of unique chemical scaffolds derived from commercially available compounds and known bioactive molecular libraries (Table 7). Auto-fluorescent compounds were removed by a counter screen. Overall, the CAA was used to assay 122,409 small molecules with over 2,500 unique chemical scaffolds (FIG. 64F, Table 7). Of these compounds, 547 were selected as hits (Z score >3 in both replicates) for testing in orthogonal cell-based secondary assays. Hits were tested in duplicate in an eGFP disruption assay, wherein U2OS.eGFP.PEST cells^33 transfected with SpCas9 plasmid and eGFP-targeting gRNA plasmid were incubated with 20 μM of the compounds. In this assay, any compound that inhibited SpCas9 would rescue the loss of eGFP fluorescence. Here, toxic and auto-fluorescent compounds with a high GFP signal in cells were removed as false positives. […] Next, Applicants tested the 15 compounds in a luminescence-based gain-of-signal HiBiT knock-in assay, which involves SpCas9-mediated homology-directed tagging of GAPDH with a short peptide that luminesces upon complementation with a subunit derived from nanoluciferase.^34 Complementarily, the eGFP-disruption assay is fluorescence-based and involves error-prone DNA repair. As a counter-screen to remove false positives caused by cell death (viability <80%), the cell viability was measured after incubation.
For SAR studies and dose-response studies, 300,000 U2OS.eGFP.PEST cells were nucleofected with 300 ng of SpCas9 plasmid (Addgene #43861) and 30 ng of eGFP-targeting gRNA plasmid (Addgene #47511)^33 using SE Cell Line 4D-Nucleofector X Kit (Lonza) following the pulse program of DN-100. For RNP-based genome editing, 10 pmol of SpCas9 (GenScript #Z03385) and 12 pmol of gRNA were mixed and incubated for 5 min. […]

Row | SMILES | Normalized Z rep1 | Z score Rep1 | SpCas9 eGFP disruption Rep1 | Normalized Z rep2 | Z socre Rep2 | SpCas9 eGFP disruption Rep2
1 | Fc1ccc(-c2nn3c(-c4cnccn4)nnc3s2)cc1Br [Compound D727-0884] | −0.16 | −1.16 | 63.178 | −0.23 | −2.10 | 56.742
2 | Clc1cccc(-c2nnc3sc(-c4ccc5ccccc5n4)nn23)c1 [Compound D727-0890] | −0.17 | −1.24 | 62.913 | −0.22 | −2.01 | 57.037
3 | Fc1cccc(-c2nnc3sc(-c4ccc5ccccc5n4)nn23)c1 [Compound D727-0892] | −0.28 | −2.03 | 60.296 | −0.34 | −3.13 | 53.657
4 | NC(=O)c1sc(=S)n2c1[nH]c(=O)c1cc(Cl)ccc12 [Compound F083-0005] | −0.23 | −1.66 | 61.541 | −0.12 | −1.09 | 59.801
5 | O=C(NCC1CCCO1)c1sc(=S)n2c1[nH]c(=O)c1cc3c(cc12)OCO3 (stereo not drawn) [Compound F083-0416] | −0.32 | −2.28 | 59.472 | −0.05 | −0.49 | 61.595
6 | CCCCNC(=O)CN1CCN(c2ccc(C(=O)O)cc2NC(=O)c2ccccc2Cl)CC1 [Compound F086-0029] | −0.30 | −2.20 | 59.751 | −0.05 | −0.46 | 61.703
7 | CCCCN(CC)C(=O)C1CCCN(c2ccc(-c3ccccc3C)nn2)C1 (stereo not drawn) [Compound F305-0129] | −0.32 | −2.35 | 59.262 | −0.38 | −3.50 | 52.541
8 | Cc1cc(Sc2ccccc2NC(=O)c2cccc(F)c2)n2ncnc2n1 [Compound F518-0008] | −0.22 | −2.00 | 59.029 | −0.20 | −3.02 | 61.293
9 | Cc1cccc(C(=O)Nc2ccccc2Sc2cc(C)nc3ncnn23)c1 [Compound F518-0014] | −0.36 | −3.28 | 55.407 | −0.34 | −5.07 | 57.92
10 | CCC(=O)Nc1ccccc1Sc1cc(C)nc2ncnn12 [Compound F518-0049] | −0.09 | −0.86 | 62.276 | −0.23 | −3.42 | 60.623
11 | O=C(O)c1cc(N2CCCC2)ccc1NC(=O)C1CCCC1 [Compound F685-1588] | −0.26 | −2.44 | 57.803 | −0.23 | −3.36 | 60.73
12 | COc1ccc(S(=O)(=O)CCC(=O)Nc2nc(-c3ccncc3)cs2)cc1 [Cpd4] | −0.26 | −3.70 | 48.322 | −0.20 | −4.05 | 47.796
13 | CC(C)(C)OC(=O)NCCOc1ccc(S(=O)(=O)CCC(=O)Nc2nc(-c3ccncc3)cs2)cc1 [Cpd6] | −0.10 | −1.44 | 54.15 | 0.06 | 1.16 | 57.456
14 | N#Cc1[nH]c(=O)n(Cc2ccccc2)c1N [Cpd10] | 0.00 | 0.06 | 58.004 | 0.14 | 2.94 | 60.748
15 | Fc1cccc(-c2nn3c(-c4ccc5ccccc5n4)nnc3s2)c1 [D727-0740] | −0.57 | −4.14 | 53.347 | −0.08 | −0.74 | 60.86
16 | Cc1c2oc3c(C)ccc(C(=O)N[C@@H]4C(=O)N[C@H](C(C)C)C(=O)N5CCC[C@H]5C(=O)N(C)CC(=O)N(C)[C@@H](C(C)C)C(=O)O[C@@H]4C)c3nc-2c(C(=O)N[C@@H]2C(=O)N[C@H](C(C)C)C(=O)N3CCC[C@H]3C(=O)N(C)CC(=O)N(C)[C@@H](C(C)C)C(=O)O[C@@H]2C)c(N)c1=O [SAM001246846] (I: T[dV]P[Sar][NMeV] / II: T[dV]P[Sar][NMeV]; ester I:1-I:C, II:1-II:C; linker I:N-II:N via Actinocin(9to1)) | −2.59 | −16.90 | 26.655 | −2.71 | −26.02 | 24.765
